Laboratory results taken from the supplement of paper PMC10307832.

Experiments:
Assay in all cases: relative viability (nuclei count vs DMSO), 5 days (fraction); higher = more cells survive
[1] = compound: C1CSC2=C(C(=O)N1)SC3=C2C=C(C=C3)O [kb NB 142-70] + CC(=O)Nc1cccc(-n2c(=O)n(C3CC3)c(=O)c3c(Nc4ccc(I)cc4F)n(C)c(=O)c(C)c32)c1 [Trametinib] (partner 0.02 µM)
Method in brief: (§1)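 Relative viability is defined as nuclei in treated wells over nuclei in vehicle wells. Duplicate plates were run and medians reported. Lung cancer cell lines in 1536-well plates were dosed by pin tool one day after seeding, with one drug or with a fixed anchor-drug dose plus five library-drug doses (not always all listed) in √10 steps, and nuclei were counted after 5 days.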

kb NB 142-70 + Dasatinib = compound: C1CSC2=C(C(=O)N1)SC3=C2C=C(C=C3)O [kb NB 142-70] + Cc1nc(Nc2ncc(C(=O)Nc3c(C)cccc3Cl)s2)cc(N2CCN(CCO)CC2)n1 [Dasatinib] (partner 0.075 µM)
Method in brief: as §1

[2] = compound: NCC(=O)Nc1ccc(-n2nc(C(F)(F)F)cc2-c2ccc3c(ccc4ccccc43)c2)cc1 + O=C(c1cc(Cc2n[nH]c(=O)c3ccccc23)ccc1F)N1CCN(C(=O)C2CC2)CC1 [Olaparib] (partner 8 µM)
Method in brief: as §1

[3] = compound: NCC(=O)Nc1ccc(-n2nc(C(F)(F)F)cc2-c2ccc3c(ccc4ccccc43)c2)cc1 + C[C@@H](Oc1cc(-c2cnn(C3CCNCC3)c2)cnc1N)c1c(Cl)ccc(F)c1Cl [Crizotinib] (partner 1 µM)
Method in brief: as §1

kb NB 142-70 + Lapatinib = compound: C1CSC2=C(C(=O)N1)SC3=C2C=C(C=C3)O [kb NB 142-70] + CS(=O)(=O)CCNCc1ccc(-c2ccc3ncnc(Nc4ccc(OCc5cccc(F)c5)c(Cl)c4)c3c2)o1 [Lapatinib] (partner 2 µM)
Method in brief: as §1

Cell Line: LOU-NH91
- relative viability ([1]; first compound 0.1 µM): 0.754
- relative viability ([1]; first compound 1 µM): 0.785
- relative viability ([1]; first compound 3.162 µM): 0.657
- relative viability (kb NB 142-70 + Dasatinib; first compound 0.1 µM): 0.486
- relative viability (kb NB 142-70 + Dasatinib; first compound 1 µM): 0.508
- relative viability (kb NB 142-70 + Dasatinib; first compound 3.162 µM): 0.556
- relative viability ([2]; first compound 0.02 µM): 0.967
- relative viability ([2]; first compound 0.06325 µM): 0.959
- relative viability ([2]; first compound 0.2 µM): 0.933
- relative viability ([2]; first compound 0.6325 µM): 0.922
- relative viability ([2]; first compound 2 µM): 0.995
- relative viability ([3]; first compound 0.02 µM): 0.725
- relative viability ([3]; first compound 0.06325 µM): 0.761
- relative viability ([3]; first compound 0.2 µM): 0.754
- relative viability ([3]; first compound 0.6325 µM): 0.565
- relative viability ([3]; first compound 2 µM): 0.756
- relative viability (kb NB 142-70 + Lapatinib; first compound 0.1 µM): 0.724
- relative viability (kb NB 142-70 + Lapatinib; first compound 1 µM): 0.73
- relative viability (kb NB 142-70 + Lapatinib; first compound 3.162 µM): 0.581

Cell Line: LU99A
- relative viability ([1]; first compound 0.1 µM): 0.559
- relative viability ([1]; first compound 1 µM): 0.598
- relative viability ([1]; first compound 3.162 µM): 0.467
- relative viability (kb NB 142-70 + Dasatinib; first compound 0.1 µM): 0.496
- relative viability (kb NB 142-70 + Dasatinib; first compound 1 µM): 0.583
- relative viability (kb NB 142-70 + Dasatinib; first compound 3.162 µM): 0.405
- relative viability ([2]; first compound 0.02 µM): 0.284
- relative viability ([2]; first compound 0.06325 µM): 0.289
- relative viability ([2]; first compound 0.2 µM): 0.261
- relative viability ([2]; first compound 0.6325 µM): 0.263
- relative viability ([2]; first compound 2 µM): 0.322
- relative viability ([3]; first compound 0.02 µM): 0.547
- relative viability ([3]; first compound 0.06325 µM): 0.654
- relative viability ([3]; first compound 0.2 µM): 0.593
- relative viability ([3]; first compound 0.6325 µM): 0.554
- relative viability ([3]; first compound 2 µM): 0.573
- relative viability (kb NB 142-70 + Lapatinib; first compound 0.1 µM): 0.977
- relative viability (kb NB 142-70 + Lapatinib; first compound 1 µM): 0.858
- relative viability (kb NB 142-70 + Lapatinib; first compound 3.162 µM): 0.71

Cell Line: LXF-289
- relative viability ([1]; first compound 0.1 µM): 0.668
- relative viability ([1]; first compound 1 µM): 0.662
- relative viability ([1]; first compound 3.162 µM): 0.69
- relative viability (kb NB 142-70 + Dasatinib; first compound 0.1 µM): 0.212
- relative viability (kb NB 142-70 + Dasatinib; first compound 1 µM): 0.215
- relative viability (kb NB 142-70 + Dasatinib; first compound 3.162 µM): 0.21
- relative viability ([2]; first compound 0.02 µM): 1.05
- relative viability ([2]; first compound 0.06325 µM): 1.11
- relative viability ([2]; first compound 0.2 µM): 1.03
- relative viability ([2]; first compound 0.6325 µM): 1.04
- relative viability ([2]; first compound 2 µM): 1.07
- relative viability ([3]; first compound 0.02 µM): 0.834
- relative viability ([3]; first compound 0.06325 µM): 0.821
- relative viability ([3]; first compound 0.2 µM): 0.799
- relative viability ([3]; first compound 0.6325 µM): 0.823
- relative viability ([3]; first compound 2 µM): 0.779
- relative viability (kb NB 142-70 + Lapatinib; first compound 0.1 µM): 0.917
- relative viability (kb NB 142-70 + Lapatinib; first compound 1 µM): 0.909
- relative viability (kb NB 142-70 + Lapatinib; first compound 3.162 µM): 0.94

Cell Line: NCI-H23
- relative viability ([1]; first compound 0.1 µM): 0.37
- relative viability ([1]; first compound 1 µM): 0.29
- relative viability ([1]; first compound 3.162 µM): 0.278
- relative viability (kb NB 142-70 + Dasatinib; first compound 0.1 µM): 0.792
- relative viability (kb NB 142-70 + Dasatinib; first compound 1 µM): 0.713
- relative viability (kb NB 142-70 + Dasatinib; first compound 3.162 µM): 0.287
- relative viability ([2]; first compound 0.02 µM): 0.33
- relative viability ([2]; first compound 0.06325 µM): 0.442
- relative viability ([2]; first compound 0.2 µM): 0.364
- relative viability ([2]; first compound 0.6325 µM): 0.329
- relative viability ([2]; first compound 2 µM): 0.336
- relative viability ([3]; first compound 0.02 µM): 0.512
- relative viability ([3]; first compound 0.06325 µM): 0.501
- relative viability ([3]; first compound 0.2 µM): 0.542
- relative viability ([3]; first compound 0.6325 µM): 0.509
- relative viability ([3]; first compound 2 µM): 0.565
- relative viability (kb NB 142-70 + Lapatinib; first compound 0.1 µM): 1.23
- relative viability (kb NB 142-70 + Lapatinib; first compound 1 µM): 0.872
- relative viability (kb NB 142-70 + Lapatinib; first compound 3.162 µM): 0.413

Cell Line: NCI-H322M
- relative viability ([1]; first compound 0.1 µM): 0.51
- relative viability ([1]; first compound 1 µM): 0.525
- relative viability ([1]; first compound 3.162 µM): 0.598
- relative viability (kb NB 142-70 + Dasatinib; first compound 0.1 µM): 0.24
- relative viability (kb NB 142-70 + Dasatinib; first compound 1 µM): 0.278
- relative viability (kb NB 142-70 + Dasatinib; first compound 3.162 µM): 0.269
- relative viability ([2]; first compound 0.02 µM): 0.865
- relative viability ([2]; first compound 0.06325 µM): 0.759
- relative viability ([2]; first compound 0.2 µM): 0.782
- relative viability ([2]; first compound 0.6325 µM): 0.802
- relative viability ([2]; first compound 2 µM): 0.794
- relative viability ([3]; first compound 0.02 µM): 1.06
- relative viability ([3]; first compound 0.06325 µM): 0.835
- relative viability ([3]; first compound 0.2 µM): 0.962
- relative viability ([3]; first compound 0.6325 µM): 0.909
- relative viability ([3]; first compound 2 µM): 0.922
- relative viability (kb NB 142-70 + Lapatinib; first compound 0.1 µM): 0.568
- relative viability (kb NB 142-70 + Lapatinib; first compound 1 µM): 0.646
- relative viability (kb NB 142-70 + Lapatinib; first compound 3.162 µM): 0.617

Cell Line: NCI-H358
- relative viability ([1]; first compound 0.1 µM): 0.117
- relative viability ([1]; first compound 1 µM): 0.103
- relative viability ([1]; first compound 3.162 µM): 0.105
- relative viability (kb NB 142-70 + Dasatinib; first compound 0.1 µM): 0.15
- relative viability (kb NB 142-70 + Dasatinib; first compound 1 µM): 0.109
- relative viability (kb NB 142-70 + Dasatinib; first compound 3.162 µM): 0.127
- relative viability ([2]; first compound 0.02 µM): 0.613
- relative viability ([2]; first compound 0.06325 µM): 0.58
- relative viability ([2]; first compound 0.2 µM): 0.632
- relative viability ([2]; first compound 0.6325 µM): 0.636
- relative viability ([2]; first compound 2 µM): 0.606
- relative viability ([3]; first compound 0.02 µM): 0.622
- relative viability ([3]; first compound 0.06325 µM): 0.557
- relative viability ([3]; first compound 0.2 µM): 0.572
- relative viability ([3]; first compound 0.6325 µM): 0.56
- relative viability ([3]; first compound 2 µM): 0.761
- relative viability (kb NB 142-70 + Lapatinib; first compound 0.1 µM): 0.45
- relative viability (kb NB 142-70 + Lapatinib; first compound 1 µM): 0.396
- relative viability (kb NB 142-70 + Lapatinib; first compound 3.162 µM): 0.161

Cell Line: NCI-H460
- relative viability ([1]; first compound 0.1 µM): 0.205
- relative viability ([1]; first compound 1 µM): 0.192
- relative viability ([1]; first compound 3.162 µM): 0.228
- relative viability (kb NB 142-70 + Dasatinib; first compound 0.1 µM): 0.504
- relative viability (kb NB 142-70 + Dasatinib; first compound 1 µM): 0.422
- relative viability (kb NB 142-70 + Dasatinib; first compound 3.162 µM): 0.336
- relative viability ([2]; first compound 0.02 µM): 0.368
- relative viability ([2]; first compound 0.06325 µM): 0.41
- relative viability ([2]; first compound 0.2 µM): 0.458
- relative viability ([2]; first compound 0.6325 µM): 0.354
- relative viability ([2]; first compound 2 µM): 0.446
- relative viability ([3]; first compound 0.02 µM): 0.922
- relative viability ([3]; first compound 0.06325 µM): 0.952
- relative viability ([3]; first compound 0.2 µM): 0.931
- relative viability ([3]; first compound 0.6325 µM): 0.811
- relative viability ([3]; first compound 2 µM): 0.688
- relative viability (kb NB 142-70 + Lapatinib; first compound 0.1 µM): 1.02
- relative viability (kb NB 142-70 + Lapatinib; first compound 1 µM): 1.03
- relative viability (kb NB 142-70 + Lapatinib; first compound 3.162 µM): 0.48

Cell Line: NCI-H520
- relative viability ([1]; first compound 0.1 µM): 0.69
- relative viability ([1]; first compound 1 µM): 0.618
- relative viability ([1]; first compound 3.162 µM): 0.386
- relative viability (kb NB 142-70 + Dasatinib; first compound 0.1 µM): 0.168
- relative viability (kb NB 142-70 + Dasatinib; first compound 1 µM): 0.197
- relative viability (kb NB 142-70 + Dasatinib; first compound 3.162 µM): 0.173
- relative viability ([2]; first compound 0.02 µM): 0.404
- relative viability ([2]; first compound 0.06325 µM): 0.285
- relative viability ([2]; first compound 0.2 µM): 0.377
- relative viability ([2]; first compound 0.6325 µM): 0.339
- relative viability ([2]; first compound 2 µM): 0.334
- relative viability ([3]; first compound 0.02 µM): 0.787
- relative viability ([3]; first compound 0.06325 µM): 1.09
- relative viability ([3]; first compound 0.2 µM): 0.889
- relative viability ([3]; first compound 0.6325 µM): 0.687
- relative viability ([3]; first compound 2 µM): 0.694
- relative viability (kb NB 142-70 + Lapatinib; first compound 0.1 µM): 0.826
- relative viability (kb NB 142-70 + Lapatinib; first compound 1 µM): 0.848
- relative viability (kb NB 142-70 + Lapatinib; first compound 3.162 µM): 0.464
